According to PubChem BioAssay (NCI):
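GI50 = concentration required for 50% inhibition of growth. TGI is the concentration that stops growth completely.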

How the values were obtained:
Test in all cases: inhibition of tumour cell growth, NCI panel, 384-well format
786-0 renal = tested on: 786-0 renal
A549 NSCLC = tested on: A549 NSCLC
ACHN renal = tested on: ACHN renal
BT-549 breast = tested on: BT-549 breast
CAKI-1 renal = tested on: CAKI-1 renal
COLO 205 colon = tested on: COLO 205 colon
DU-145 prostate = tested on: DU-145 prostate
EKVX NSCLC = tested on: EKVX NSCLC
HCC-2998 colon = tested on: HCC-2998 colon
HCT-116 colon = tested on: HCT-116 colon
HCT-15 colon = tested on: HCT-15 colon
HL-60(TB) leukemia = tested on: HL-60(TB) leukemia
HOP-92 NSCLC = tested on: HOP-92 NSCLC
HS 578T breast = tested on: HS 578T breast
IGROV1 ovarian = tested on: IGROV1 ovarian
K-562 leukemia = tested on: K-562 leukemia
KM12 colon = tested on: KM12 colon
LOX IMVI melanoma = tested on: LOX IMVI melanoma
M14 melanoma = tested on: M14 melanoma
MDA-MB-231 breast = tested on: MDA-MB-231 breast
MDA-MB-435 melanoma = tested on: MDA-MB-435 melanoma
MDA-MB-468 breast = tested on: MDA-MB-468 breast
NCI-H226 lung = tested on: NCI-H226 lung
NCI-H23 lung = tested on: NCI-H23 lung
NCI-H460 NSCLC = tested on: NCI-H460 NSCLC
NCI/ADR-RES ovarian = tested on: NCI/ADR-RES ovarian
OVCAR-3 ovarian = tested on: OVCAR-3 ovarian
OVCAR-4 ovarian = tested on: OVCAR-4 ovarian
PC-3 prostate = tested on: PC-3 prostate
RPMI-8226 leukemia = tested on: RPMI-8226 leukemia
RXF 393 renal = tested on: RXF 393 renal
SF-268 CNS = tested on: SF-268 CNS
SF-295 CNS = tested on: SF-295 CNS
SF-539 CNS = tested on: SF-539 CNS
SK-MEL-2 melanoma = tested on: SK-MEL-2 melanoma
SK-MEL-28 melanoma = tested on: SK-MEL-28 melanoma
SK-OV-3 ovarian = tested on: SK-OV-3 ovarian
SN12C renal = tested on: SN12C renal
SNB-19 CNS = tested on: SNB-19 CNS
SNB-75 CNS = tested on: SNB-75 CNS
SR leukemia = tested on: SR leukemia
SW-620 colon = tested on: SW-620 colon
T-47D breast = tested on: T-47D breast
TK-10 renal = tested on: TK-10 renal
U251 glioblastoma = tested on: U251 glioblastoma
UACC-62 melanoma = tested on: UACC-62 melanoma
UO-31 renal = tested on: UO-31 renal

`CC1(N)CCN(c2cnc(-c3cccc(Cl)c3Cl)c(N)n2)CC1` was tested, and the GI50 ([…]-0 renal) was 11.1 µM, the TGI (786-0 renal) was 24 µM and the GI50 (A549 NSCLC) was 30.1 µM. The TGI (A549 NSCLC) was over 100 µM, the GI50 (ACHN renal) was 10.5 µM and the TGI (ACHN renal) was 60.6 µM. For the same molecule, the GI50 (BT-549 breast) was 10.6 µM, the TGI (BT-549 breast) was 24 µM and the GI50 (CAKI-1 renal) was 2.74 µM. For the same molecule, the TGI (CAKI-1 renal) was 16.9 µM, the GI50 (COLO 205 colon) was 21.3 µM and the TGI (COLO 205 colon) was 41.5 µM. It also gave a GI50 (DU-145 prostate) of 47 µM, a TGI (DU-145 prostate) of over 100 µM and a GI50 (EKVX NSCLC) of 8.83 µM. For the same molecule, the TGI (EKVX NSCLC) was 30.8 µM, the GI50 (HCC-2998 colon) was 16 µM and the TGI (HCC-2998 colon) was 29.8 µM. For the same molecule, the GI50 (HCT-116 colon) was 17.2 µM, the TGI (HCT-116 colon) was 32.1 µM and the GI50 (HCT-15 colon) was 16.6 µM. The TGI (HCT-15 colon) was 33.5 µM, the GI50 (HL-60(TB) leukemia) was 23.4 µM and the TGI (HL-60(TB) leukemia) was 38.1 µM. It also gave a GI50 (HOP-92 NSCLC) of 1.02 µM, a TGI (HOP-92 NSCLC) of 8.17 µM and a GI50 (HS 578T breast) of 13.4 µM. For the same molecule, the TGI (HS 578T breast) was 27.2 µM, the GI50 (IGROV1 ovarian) was 8.4 µM and the TGI (IGROV1 ovarian) was 27 µM. For the same molecule, the GI50 (K-562 leukemia) was 0.783 µM, the TGI (K-562 leukemia) was 14.4 µM and the GI50 (KM12 colon) was 6.2 µM. It also gave a TGI (KM12 colon) of 20 µM, a GI50 (LOX IMVI melanoma) of 17.1 µM and a TGI (LOX IMVI melanoma) of 31 µM. For the same molecule, the GI50 (M14 melanoma) was 17.6 µM, the TGI (M14 melanoma) was 31.5 µM and the GI50 (MDA-MB-231 breast) was 20.2 µM. For the same molecule, the TGI (MDA-MB-231 breast) was 49.6 µM, the GI50 (MDA-MB-435 melanoma) was 22.8 µM and the TGI (MDA-MB-435 melanoma) was 48 µM. It also gave a GI50 (MDA-MB-468 breast) of 0.898 µM, a TGI (MDA-MB-468 breast) of 5.96 µM and a GI50 (NCI-H226 lung) of 8.68 µM. For the same molecule, the TGI (NCI-H226 lung) was 46.6 µM, the GI50 (NCI-H23 lung) was 3.66 µM and the TGI (NCI-H23 lung) was 23.4 µM. It also gave a GI50 (NCI-H460 NSCLC) of 18.1 µM, a TGI (NCI-H460 NSCLC) of 33.3 µM and a GI50 (NCI/ADR-RES ovarian) of 17.9 µM. The TGI (NCI/ADR-RES ovarian) was over 71.1 µM, the GI50 (OVCAR-3 ovarian) was 13.6 µM and the TGI (OVCAR-3 ovarian) was 45.3 µM. The GI50 (OVCAR-4 ovarian) was 14 µM, the TGI (OVCAR-4 ovarian) was over 77.1 µM and the GI50 (PC-3 prostate) was 21.4 µM. For the same molecule, the TGI (PC-3 prostate) was over 60.4 µM, the GI50 (RPMI-8226 leukemia) was 13.9 µM and the TGI (RPMI-8226 leukemia) was 28.9 µM. It also gave a GI50 (RXF 393 renal) of 12.2 µM, a TGI (RXF 393 renal) of 25.5 µM and a GI50 (SF-268 CNS) of 18.6 µM. It also gave a TGI (SF-268 CNS) of 53.4 µM, a GI50 (SF-295 CNS) of 21.5 µM and a TGI (SF-295 CNS) of over 55.2 µM. For the same molecule, the GI50 (SF-539 CNS) was 13.9 µM, the TGI (SF-539 CNS) was 27.7 µM and the GI50 (SK-MEL-2 melanoma) was 13.7 µM. The TGI (SK-MEL-2 melanoma) was 26.6 µM, the GI50 (SK-MEL-28 melanoma) was 16.7 µM and the TGI (SK-MEL-28 melanoma) was 30.5 µM. For the same molecule, the GI50 (SK-OV-3 ovarian) was 10.2 µM, the TGI (SK-OV-3 ovarian) was 24.9 µM and the GI50 (SN12C renal) was 5.63 µM. The TGI (SN12C renal) was 42.7 µM, the GI50 (SNB-19 CNS) was 11.9 µM and the TGI (SNB-19 CNS) was over 74.3 µM. It also gave a GI50 (SNB-75 CNS) of 12.3 µM, a TGI (SNB-75 CNS) of 38.2 µM and a GI50 (SR leukemia) of 7.14 µM. The TGI (SR leukemia) was 20.3 µM, the GI50 (SW-620 colon) was 7.58 µM and the TGI (SW-620 colon) was over 50.4 µM. It also gave a GI50 (T-47D breast) of 13.3 µM, a TGI (T-47D breast) of 27.9 µM and a GI50 (TK-10 renal) of 8.25 µM. For the same molecule, the TGI (TK-10 renal) was 25 µM, the GI50 (U251 glioblastoma) was 13.5 µM and the TGI (U251 glioblastoma) was 27.4 µM. The GI50 (UACC-62 melanoma) was 18.7 µM, the TGI (UACC-62 melanoma) was 32.9 µM and the GI50 (UO-31 renal) was 14.2 µM. For the same molecule, the TGI (UO-31 renal) was over 100 µM.
`NS(=O)(=O)NCCNc1nonc1C(=Nc1ccc(F)c(Br)c1)NO` showed a GI50 ([…]-0 renal) of 35.1 µM, a TGI (786-0 renal) of over 100 µM and a GI50 (A549 NSCLC) of 30.9 µM. The TGI (A549 NSCLC) was over 100 µM, the GI50 (ACHN renal) was 36.6 µM and the TGI (ACHN renal) was over 100 µM. For the same molecule, the GI50 (BT-549 breast) was 5.97 µM, the TGI (BT-549 breast) was over 56.3 µM and the GI50 (CAKI-1 renal) was 5.66 µM. It also gave a TGI (CAKI-1 renal) of over 100 µM, a GI50 (COLO 205 colon) of 21.8 µM and a TGI (COLO 205 colon) of over 60.6 µM. For the same molecule, the GI50 (DU-145 prostate) was 48.2 µM, the TGI (DU-145 prostate) was over 100 µM and the GI50 (EKVX NSCLC) was 31.8 µM. For the same molecule, the TGI (EKVX NSCLC) was over 100 µM, the GI50 (HCC-2998 colon) was 22.5 µM and the TGI (HCC-2998 colon) was 51.7 µM. The GI50 (HCT-116 colon) was 36.6 µM, the TGI (HCT-116 colon) was over 100 µM and the GI50 (HCT-15 colon) was 51.6 µM. The TGI (HCT-15 colon) was over 100 µM, the GI50 (HL-60(TB) leukemia) was 18.9 µM and the TGI (HL-60(TB) leukemia) was 33.2 µM. The GI50 (HOP-92 NSCLC) was 29.6 µM, the TGI (HOP-92 NSCLC) was over 89.5 µM and the GI50 (HS 578T breast) was 25.3 µM. For the same molecule, the TGI (HS 578T breast) was 87.4 µM, the GI50 (IGROV1 ovarian) was 37.4 µM and the TGI (IGROV1 ovarian) was over 100 µM. For the same molecule, the GI50 (K-562 leukemia) was 27.8 µM, the TGI (K-562 leukemia) was over 100 µM and the GI50 (KM12 colon) was 8.9 µM. The TGI (KM12 colon) was over 100 µM, the GI50 (LOX IMVI melanoma) was 34.5 µM and the TGI (LOX IMVI melanoma) was over 100 µM. It also gave a GI50 (M14 melanoma) of 38.9 µM, a TGI (M14 melanoma) of over 100 µM and a GI50 (MDA-MB-231 breast) of 67.2 µM. It also gave a TGI (MDA-MB-231 breast) of over 100 µM, a GI50 (MDA-MB-435 melanoma) of 42.5 µM and a TGI (MDA-MB-435 melanoma) of over 100 µM. For the same molecule, the GI50 (MDA-MB-468 breast) was 14.6 µM, the TGI (MDA-MB-468 breast) was 33.1 µM and the GI50 (NCI-H226 lung) was 20.8 µM. For the same molecule, the TGI (NCI-H226 lung) was over 84.4 µM, the GI50 (NCI-H23 lung) was 27.1 µM and the TGI (NCI-H23 lung) was over 100 µM. It also gave a GI50 (NCI-H460 NSCLC) of 27.4 µM, a TGI (NCI-H460 NSCLC) of 73 µM and a GI50 (NCI/ADR-RES ovarian) of over 100 µM. For the same molecule, the TGI (NCI/ADR-RES ovarian) was over 100 µM, the GI50 (OVCAR-3 ovarian) was 24 µM and the TGI (OVCAR-3 ovarian) was 76.8 µM. For the same molecule, the GI50 (OVCAR-4 ovarian) was 21.4 µM, the TGI (OVCAR-4 ovarian) was 72.5 µM and the GI50 (PC-3 prostate) was 6.11 µM. It also gave a TGI (PC-3 prostate) of over 100 µM, a GI50 (RPMI-8226 leukemia) of 17.6 µM and a TGI (RPMI-8226 leukemia) of 35.2 µM. It also gave a GI50 (RXF 393 renal) of 4.11 µM, a TGI (RXF 393 renal) of over 31.6 µM and a GI50 (SF-268 CNS) of 33.9 µM. It also gave a TGI (SF-268 CNS) of over 100 µM, a GI50 (SF-295 CNS) of 11.7 µM and a TGI (SF-295 CNS) of over 78.6 µM. The TGI (SF-539 CNS) was over 100 µM, the GI50 (SK-MEL-2 melanoma) was 20.1 µM and the TGI (SK-MEL-2 melanoma) was 47.1 µM. For the same molecule, the GI50 (SK-MEL-28 melanoma) was 42.7 µM, the TGI (SK-MEL-28 melanoma) was over 100 µM and the GI50 (SK-OV-3 ovarian) was 10.9 µM. The TGI (SK-OV-3 ovarian) was over 100 µM, the GI50 (SN12C renal) was 35.2 µM and the TGI (SN12C renal) was over 100 µM. The GI50 (SNB-19 CNS) was 42.1 µM, the TGI (SNB-19 CNS) was over 100 µM and the GI50 (SNB-75 CNS) was 21.4 µM. For the same molecule, the TGI (SNB-75 CNS) was 60.2 µM, the GI50 (SR leukemia) was 14.6 µM and the TGI (SR leukemia) was 28.9 µM. The GI50 (SW-620 colon) was 42.2 µM, the TGI (SW-620 colon) was over 100 µM and the GI50 (T-47D breast) was 23.9 µM. The TGI (T-47D breast) was over 74.5 µM, the GI50 (TK-10 renal) was 28.8 µM and the TGI (TK-10 renal) was over 89.2 µM. It also gave a GI50 (U251 glioblastoma) of 33.9 µM, a TGI (U251 glioblastoma) of over 100 µM and a GI50 (UACC-62 melanoma) of 24.5 µM. The TGI (UACC-62 melanoma) was over 100 µM, the GI50 (UO-31 renal) was 36 µM and the TGI (UO-31 renal) was over 100 µM.
